Calls of active or inactive are those of the source. The calls are words filed in the database; no cut-off is given here.
Tests used:
HepG2 [1] = experiment: Induction of ferroptosis in human HepG2 cells assessed as cell viability preincubated with compound for 4 hrs followed by light irradiation with 450 nm blue LED lamp for 10 mins and measured after 24 hrs in presence of chloroquine by MTT assay; assay type: functional, cell-based; settings: time 1690.0 min
[2] = Photophysical property of the compound in MeOH assessed as fluorescence quantum yield under 450 nm photoirradiation with blue light lamp by U-4100 spectrophotometric analysis; assay type: physicochemical; set-up: unit not given here
[3] = Photophysical property of the compound in water assessed as fluorescence quantum yield under 450 nm photoirradiation with blue light lamp by U-4100 spectrophotometric analysis; assay type: physicochemical; set-up: unit not given here; settings: buffer
HepG2 [4] = experiment: (§1) Induction of apoptosis in human HepG2 cells assessed as chromatin condensation by measuring increase in red fluorescence at 0.1 uM preincubated with compound for 4 hrs followed by light irradiation with 450 nm blue LED lamp for 10 mins and measured after 24 hrs by PI staining based confocal microscopic analysis; assay type: functional, cell-based; settings: time 1690.0 min
[5] = Drug localization in endoplasmic reticulum of human HepG2 cells at 2 uM incubated for 2 hrs by ER-Tracker Blue staining based confocal fluorescence microscopy; assay type: ADME, subcellular; settings: hepg2, 2 h
[6] = Phototoxicity against human HepG2 cells assessed as cell viability preincubated with compound for 4 hrs followed by light irradiation with 450 nm blue LED lamp for 10 mins and measured after 24 hrs by MTT assay; assay type: functional, cell-based; settings: HepG2, light or radiation study
HepG2 [7] = experiment: Induction of ferroptosis in human HepG2 cells assessed as cell viability preincubated with compound for 4 hrs followed by light irradiation with 450 nm blue LED lamp for 10 mins and measured after 24 hrs in presence of 3-methyladenine by MTT assay; assay type: functional, cell-based; settings: time 1690.0 min
HepG2 [8] = experiment: Induction of ferroptosis in human HepG2 cells assessed as cell death preincubated with compound for 4 hrs followed by light irradiation with 450 nm blue LED lamp for 10 mins and measured after 24 hrs in presence of ferrostatin-1 by MTT assay; assay type: functional, cell-based; settings: time 1690.0 min
HepG2 [9] = experiment: Cytotoxicity against human HepG2 cells assessed as cell viability incubated for 4 hrs under dark condition by MTT assay; assay type: functional, cell-based; settings: HepG2, 4 h
HepG2 [10] = experiment: as §1, with “in blue” for “in red”, “by Hoechst 33342” for “by PI”; assay type: functional, cell-based; settings: time 1690.0 min
HepG2 [11] = experiment: Induction of ferroptosis in human HepG2 cells assessed as cell viability preincubated with compound for 4 hrs followed by light irradiation with 450 nm blue LED lamp for 10 mins and measured after 24 hrs in presence of necrostatin-1 by MTT assay; assay type: functional, cell-based; settings: time 1690.0 min
[12] = Photophysical property of the compound assessed as singlet oxygen quantum yield under 15 W photoirradiation with blue LED light by EPR spectrophotometric analysis; assay type: physicochemical; set-up: unit not given here
[13] = Phototoxic index, ratio of IC50 for cytotoxicity against human HepG2 cells incubated for 4 hrs under dark condition by MTT assay to IC50 for cytotoxicity against human HepG2 cells preincubated with compound for 4 hrs followed by light irradiation with 450 nm blue LED lamp for 10 mins and measured after 24 hrs by MTT assay; assay type: functional
HepG2 [14] = experiment: Induction of ferroptosis in human HepG2 cells assessed as cell death preincubated with compound for 4 hrs followed by light irradiation with 450 nm blue LED lamp for 10 mins and measured after 24 hrs in presence of 50 uM ferrostatin-1 by MTT assay; assay type: functional, cell-based; settings: time 1690.0 min
[15] = Drug localization in nucleus of human HepG2 cells at 2 uM incubated for 2 hrs by […] staining based confocal fluorescence microscopy; assay type: ADME, subcellular; settings: hepg2, 2 h
HepG2 [16] = experiment: Induction of mitochondrial damage in human HepG2 cells assessed as change in mitochondrial morphology at 1 uM preincubated with compound for 4 hrs followed by light irradiation with blue LED lamp for 10 mins and measured after 24 hrs by confocal microscopic analysis; assay type: functional, cell-based; settings: time 1690.0 min
[17] = Drug localization in mitochondria of human HepG2 cells at 2 uM incubated for 2 hrs by MitoTracker red CMXRos staining based confocal fluorescence microscopy; assay type: ADME; settings: hepg2, 2 h
HepG2 [18] = experiment: Induction of apoptosis in human HepG2 cells assessed as effect on caspase-3 level preincubated with compound for 4 hrs followed by light irradiation with blue LED lamp for 10 mins and measured after 24 hrs by Western blot analysis; assay type: functional, cell-based; settings: time 1690.0 min
HepG2 [19] = experiment: Antiproliferative activity against human HepG2 cells cultured as 3D spheroids assessed as inhibition of cell growth at 5 uM pretreated with 450 nm light irradiation and compound for 10 mins and measured at day 5 by fluorescence microscopic analysis; assay type: functional, cell-based; settings: time 7210.0 min
HepG2 [20] = experiment: Induction of ferroptosis in human HepG2 cells assessed as downregulation of Fth1 expression preincubated with compound for 4 hrs followed by light irradiation with blue LED lamp for 10 mins and measured after 24 hrs in presence of Fer-1 by Western blot analysis; assay type: functional, cell-based; settings: time 1690.0 min
HepG2 [21] = experiment: Induction of apoptosis in human HepG2 cells assessed as reduction in Bcl-2/Bax ratio preincubated with compound for 4 hrs followed by light irradiation with blue LED lamp for 10 mins and measured after 24 hrs by Western blot analysis; assay type: functional, cell-based; settings: time 1690.0 min
HepG2 [22] = experiment: Induction of apoptosis in human HepG2 cells assessed as increase in Bax expression preincubated with compound for 4 hrs followed by light irradiation with blue LED lamp for 10 mins and measured after 24 hrs by Western blot analysis; assay type: functional, cell-based; settings: time 1690.0 min
HepG2 [23] = experiment: Induction of apoptosis in human HepG2 cells assessed as change in Bcl-2 level preincubated with compound for 4 hrs followed by light irradiation with blue LED lamp for 10 mins and measured after 24 hrs by Western blot analysis; assay type: functional, cell-based; settings: time 1690.0 min
HepG2 [24] = experiment: Induction of ferroptosis in human HepG2 cells assessed as downregulation of Gpx4 expression preincubated with compound for 4 hrs followed by light irradiation with blue LED lamp for 10 mins and measured after 24 hrs in presence of Fer-1 by Western blot analysis; assay type: functional, cell-based; settings: time 1690.0 min
HepG2 [25] = experiment: Antiproliferative activity against human HepG2 cells cultured as 3D spheroids assessed as inhibition of cell growth at 5 to 10 uM pretreated with 450 nm light irradiation and compound for 10 mins and measured at day 5 by fluorescence microscopic analysis; assay type: functional, cell-based; settings: dose 5-10 µM, time 7210.0 min
HepG2 [26] = experiment: Induction of apoptosis in human HepG2 cells assessed as effect on PARP level preincubated with compound for 4 hrs followed by light irradiation with blue LED lamp for 10 mins and measured after 24 hrs by Western blot analysis; assay type: functional, cell-based; settings: time 1690.0 min
HepG2 [27] = experiment: Induction of ferroptosis in human HepG2 cells assessed as downregulation of Keap1 expression preincubated with compound for 4 hrs followed by light irradiation with blue LED lamp for 10 mins and measured after 24 hrs in presence of Fer-1 by Western blot analysis; assay type: functional, cell-based; settings: time 1690.0 min
Mitochondrial membrane = experiment: Induction of mitochondrial membrane potential loss in human HepG2 cells at 3 uM incubated for 4 hrs in presence of light irradiation by TMRE staining based fluorescence microscopic analysis; assay type: cell membranes
HepG2 [28] = experiment: as §1, with “0.3” for “0.1”; assay type: functional, cell-based; settings: time 1690.0 min
HepG2 [29] = experiment: Induction of apoptosis in human HepG2 cells assessed as cytochrome C release from mitochondria preincubated with compound for 4 hrs followed by light irradiation with blue LED lamp for 10 mins and measured after 24 hrs by Western blot analysis; assay type: functional, cell-based; settings: time 1690.0 min
HepG2 [30] = experiment: as §1, with “in blue” for “in red”, “at 0.3” for “at 0.1”, “by Hoechst 33342” for “by PI”; assay type: functional, cell-based; settings: time 1690.0 min
HepG2 [31] = experiment: Induction of ferroptosis in human HepG2 cells assessed as cell viability preincubated with compound for 4 hrs followed by light irradiation with 450 nm blue LED lamp for 10 mins and measured after 24 hrs in presence of 50 uM Fer-1 by MTT assay relative to control; assay type: functional; settings: time 1690 min; 28.17 h
[32] = Drug localization in lysosome of human HepG2 cells at 2 uM incubated for 2 hrs by Lyso-Tracker staining based confocal fluorescence microscopy; assay type: ADME, subcellular; settings: hepg2, 2 h

Row | SMILES | Activity [2] | Activity [3] | Activity [12] | IC50 [6] [µM] | IC50 (HepG2 [9]) [µM] | Ratio IC50 [13] | other results
1 | CCN(CC)c1ccc2cc(-c3nc4ccc(O)cc4c(=O)[nH]3)c(=O)oc2c1 | 36.66 | < 5 | 12.86 | 24.5 | 57.6 | 2.35 | –
2 | CCN(CC)c1ccc2cc(-c3nc4ccc(OCCN5CCCCC5)cc4c(=O)[nH]3)c(=O)oc2c1 | 47.65 | 15.68 | 24.5 | 0.11 | 3.95 | 35.9 | Drug uptake [15]: Active

Further lines, with some results ahead:

Row | Activity [2] | Activity [3] | Activity [12] | SMILES | IC50 [6] [µM] | IC50 (HepG2 [9]) [µM] | Ratio IC50 [13] | other results
3 | 59.27 | 7.55 | 30.08 | CCN(CC)c1ccc2cc(-c3nc4ccc(OCc5cn(CCNS(=O)(=O)c6ccc(C)cc6)nn5)cc4c(=O)[nH]3)c(=O)oc2c1 | 0.15 | 36.7 | 244.93 | Activity (HepG2 [1]): Active; Activity (HepG2 [4]): Active; Drug uptake [5]: Active; Activity (HepG2 [7]): Active; Activity (HepG2 [8]): Active; Activity (HepG2 [10]): Active; Activity (HepG2 [11]): Active; Activity (HepG2 [14]): Active
4 | 69.6 | 8.72 | 27.22 | CCN(CC)c1ccc2cc(-c3nc4ccc(OCc5cn(CCC[P+](c6ccccc6)(c6ccccc6)c6ccccc6)nn5)cc4c(=O)[nH]3)c(=O)oc2c1.[Br-] | 0.28 | 46.7 | 166.89 | Activity (HepG2 [16]): Active; Drug uptake [17]: Active; Activity (HepG2 [18]): Active; Activity (HepG2 [19]): Active; Activity (HepG2 [20]): Active; Activity (HepG2 [21]): Active; Activity (HepG2 [22]): Active; Activity (HepG2 [23]): inactive; Activity (HepG2 [24]): Active; Activity (HepG2 [25]): Active; Activity (HepG2 [26]): Active; Activity (HepG2 [27]): Active; Activity (Mitochondrial membrane): Active; Activity (HepG2 [28]): Active; Activity (HepG2 [29]): Active; Activity (HepG2 [30]): Active; Activity (HepG2 [31]): ~70%
5 | 79.66 | 31.49 | 13.06 | CCN(CC)c1ccc2cc(-c3nc4ccc(OCCCN5CCOCC5)cc4c(=O)[nH]3)c(=O)oc2c1 | 0.38 | 12.4 | 32.52 | Drug uptake [32]: Active

— ChEMBL document CHEMBL6092198, “Coumarin-Quinazolinone based photosensitizers: Mitochondria and endoplasmic reticulum targeting for enhanced phototherapy via different cell death pathways” (Eur J Med Chem, 2024)
